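How tested: cells in 96-well plates exposed to compound for 48 hours at five concentrations. The concentration for full growth arrest is given as TGI.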
Assays:
Experiment in all cases: DTP human tumour cell line panel, 48 h
A498 renal = test system: A498 renal
DU-145 prostate = test system: DU-145 prostate
HCT-116 colon = test system: HCT-116 colon
HCT-15 colon = test system: HCT-15 colon
K-562 leukemia = test system: K-562 leukemia
NCI/ADR-RES ovarian = test system: NCI/ADR-RES ovarian
RPMI-8226 leukemia = test system: RPMI-8226 leukemia
SNB-19 CNS = test system: SNB-19 CNS
UO-31 renal = test system: UO-31 renal
SF-295 CNS = test system: SF-295 CNS

SMILES	TGI (A498 renal) [µM]	TGI (DU-145 prostate) [µM]	TGI (HCT-116 colon) [µM]	TGI (HCT-15 colon) [µM]	TGI (K-562 leukemia) [µM]	TGI (NCI/ADR-RES ovarian) [µM]	TGI (RPMI-8226 leukemia) [µM]	TGI (SNB-19 CNS) [µM]	TGI (UO-31 renal) [µM]	TGI (SF-295 CNS) [µM]
Cc1cc(C)nc(NS(=O)(=O)c2ccc(NC(=O)c3cc([N+](=O)[O-])cc([N+](=O)[O-])c3)cc2)n1	> 100	> 100	> 100	> 100	> 100	> 100	> 100	> 100	> 100	
CCC(=O)Nc1ccc(NCC(=O)Nc2ccc(OC)cc2)cc1	87.9	> 100	80.3	> 100	> 100	85.7	90.5	31.3	> 100	> 100
NC(N)=N/N=C/c1c(-c2cc([N+](=O)[O-])c(Cl)cc2Cl)nc2n1CCS2	> 100	87.2	> 100	> 100	> 100	> 100	> 100	16.5	38.2	70.4
N#Cc1c(-c2ccccc2)cc(Nc2ccc(Cl)cc2)n2c1nc1ccccc12	> 100	> 100	> 31.7	> 88	8.21	15.7	> 63.3	> 100	> 100	> 33.3
Nc1c2cc3ccc2nc2ccc(cc12)OCCOCCOCCOCCOCCOCCO3	> 10	> 10	> 10	> 10	> 10	> 10	> 10	> 10		> 10
C=C(C)C(=O)OC1C[C@H](COC(C)=O)C2CC=C(CO)C2C2OC(=O)C(=C)[C@H]12 (stereo not given in full)	> 100	> 100	38.2	> 100	54.4	> 100	> 100	> 100	> 100	> 100
COc1cc(OC)c(OC)cc1/C=C/c1cc[n+](C)c2ccccc12	> 100	> 100	> 100	> 100	19.4	> 100	> 100	> 100	> 100	> 100
C=CCn1c(-c2ccc(Cl)cc2)csc1=Nc1ccccc1OC	> 100	> 100	> 100	> 100	19.4	> 91.6	> 100	> 100	> 100	> 79.8
C/C(O[Si](C(C)C)(C(C)C)C(C)C)=C(\C)C(=O)N(C)c1ccccc1Cl	> 100	> 100	> 100	> 100		> 100	> 100	> 100	> 100	> 100
COc1ccc(CCN2C(=O)CC34C=CC(CC3C2=O)O4)cc1OC (stereo not given)	> 100	> 100	> 100	> 100	> 100	> 100	> 100	> 100	> 100	> 100
CCOc1cc(-c2nc3cc(F)ccc3s2)ccc1O	26.2	32.2	47.3	29	25.9	50.2	29.6	30.7	25.8	35.2
COc1ccc(C2C3=C(COC3=O)OC(C)(C)Oc3cc4c(cc32)OCO4)cc1OC (stereo not given)	63.8	> 100	> 92.3	> 100	> 95.7	58.7	> 100	> 100	> 100	88.4
C=CC[C@]1(C2=NC(C)(C)CO2)c2ccccc2-c2ccccc2[C@H]1C(C)=O	21.1	29.6	20.2	26.4	29.8	22.7	33.5	34.7	28	19.1
CCN(CC)CCN1C(=O)C(=O)N(c2cccc3ccccc23)C1=O	> 10	> 10	> 10	> 10	> 10	> 10	> 10	> 10	> 10	> 10
O=C1NC(=Nc2ccccc2Cl)N/C1=C\c1ccc(Cl)cc1Cl	> 100	> 100	> 100	> 100	> 100	> 100	> 100	> 100	> 100	> 100
O=C(C1OC1c1cccc([N+](=O)[O-])c1)C12CC3CC(CC(C3)C1)C2 (stereo not given)	14.2	26.8	4.69	14.7	13.2	9.74	6.18	20.5	21	17.3
COc1cc(OC)c(C2(c3c(OC(C)C)c(=O)c3=O)SCCCS2)cc1OC	> 100	> 100	> 100	> 100	> 100	> 100	> 100	> 100	> 100	> 100
O=[N+]([O-])C(C(Cl)=C(Cl)Cl)=C(n1cncn1)n1cncn1	> 100	31.6	31.9	36.7	> 100	67	51.5	> 100	34.9	> 100
CC(=O)c1c(O)n(-c2ccc(C)cc2)c(=O)c2c(N)n[nH]c12	> 100	> 100	> 100	> 100	> 100	> 100	> 100	> 100	> 100	
O=c1[nH]nc(-c2ccc(F)cc2)cc1-c1ccccc1	> 100	> 100	> 100	> 100	> 100	> 100	> 100	> 100		> 100
